According to paper PMC6383986, “Fragment-Based Covalent Ligand Screening Enables Rapid Discovery of Inhibitors for the RBR E3 Ubiquitin Ligase HOIP” (Journal of the American Chemical Society, 2019):

What was measured:
[1] = test system: E1, UbcH5c, UbcH7, HOIL-1L, RNF144A, HHARI, TRIAD3A RBR domains, NEDD4L, E6AP, OTULIN, CYLD-1; test: LC-MS-based enzyme counter screen; assay type: binding; conditions: 2-fold excess, positive control
Procedure: 0.1% formic acid in water. The samples were analyzed on a Q Exactive MS (Thermo Fisher) coupled to an Easy-nLC chromatographic system (Thermo Fisher) with a nano ESI source (Thermo Fisher). Each sample (2 µL) was injected and trapped on a C18 Acclaim pepMap 100 enrichment column (75 µm id × 2 cm, 3 µm nanoviper, Thermo Fisher). The samples were transferred to a C18 Acclaim PepMap RSLC analytical column (75 µm id × 15 cm, 2 µm, Thermo Fisher) at 300 nL/min. Mobile phase A (0.1% Formic acid in water, v/v); mobile phase B (0.1% […]
min (70-95% B), 56-61 min (95% B). The nanospray ionisation source was operated in the positive mode with spray voltage set at 2 kV, and heated capillary at 250 °C. The Q Exactive was operated in the data dependent mode and the top 15 most intense ions were subjected to HCD fragmentation with normalised collision energy set at 26%. The MS1 scans were performed at a resolution of 70 000 from 400-1600 m/z, automatic gain control (AGC) value 3 e6, maximum injection time 100 ms. […]
Compounds (1) and (5) were screened against E1, the E2s UbcH5c and UbcH7, the RBR domains of the E3 ligases HOIP, HOIL-1L, RNF144A, HHARI and TRIAD3A, the HECT E3 ligases NEDD4L and E6AP, and the DUBs OTULIN and CYLD-1. […] The samples were analyzed after 0.5 and 24 h incubation. […]

[2] = test system: untransfected HEK293T cells; test: CellTiter-Glo Luminescent cell viability assay, untransfected cells; assay type: cell-based; conditions: 17 h
Procedure: Separately, untransfected HEK293T cells were incubated with compounds (1), (11a) and (17) for 17 h, and the cell viability determined using the CellTiter-Glo® Luminescent Cell Viability Assay as described above. Average data from three independent experiments each done in triplicate were plotted as percentage cell viability normalized to DMSO control with GraFit (v.7) against different compound concentrations and fitted using the IC50-4 parameter logistic (Supplementary […]
Supplementary Figure S14. A-D) Uncropped concentration-response graphs (A and D from Figure 6D) and Western blots from the NF-κB reporter and cell viability assays. HEK293T cells transfected with His6-tagged HOIP, HOIL-1L and SHARPIN (H/H/S) were treated with compounds (11a) and (17) for 17 h and the relative NF-κB activity and cell viability was plotted against compound concentration. E) Cell viability of untransfected HEK293T cells treated with compound (1), (11a) and (17) for 17 h. The observed cell toxicity for compound (1) was in line that previously […]
(1 picture or pasted object on this page, not shown here)

Structure (SMILES): Cc1ccc(S(=O)(=O)/C=C/C#N)cc1 [Compound 1, BAY 11–7082, reference compound]
- labeling of counter screen proteins [1]: rapid and extensive labeling for most proteins
- cell viability [2]: cell toxicity
